According to EP4755880A1, “SUBSTITUTED NITROGEN-CONTAINING BICYCLIC COMPOUND AND USE THEREOF” (Sunshine Lake Pharma Co., Ltd., priority 2023, dated 2025):

Assays:
MDA-MB-436 cells = test: Inhibition of proliferation of MDA-MB-436 cells (CellTiter-Glo); type: cell-based; conditions: Homo sapiens, MDA-MB-436, 168 h, 7 days incubation
Method in brief: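 MDA-MB-436 cells seeded at 500-1000 cells/well, allowed to attach overnight, then treated with 9 concentrations from 10000 to 0.152 nM final (4-fold steps) in triplicate for 7 days at 37°C, 5% CO2. Viability by CellTiter-Glo luminescence; IC50 from fitted curve.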

PARP1 = PARP1 (Homo sapiens, UniProt P09874); test: Inhibition of PARP1 enzyme activity (ELISA, chemiluminescence); type: biochemical; conditions: for IC50: ELISA, histone-coated plate, NAD+, 60 min at 25 °C; for Selectivity PARP2/PARP1: ratio of PARP2 IC50 to PARP1 IC50
Chain of PARP1 (P09874 whole entry): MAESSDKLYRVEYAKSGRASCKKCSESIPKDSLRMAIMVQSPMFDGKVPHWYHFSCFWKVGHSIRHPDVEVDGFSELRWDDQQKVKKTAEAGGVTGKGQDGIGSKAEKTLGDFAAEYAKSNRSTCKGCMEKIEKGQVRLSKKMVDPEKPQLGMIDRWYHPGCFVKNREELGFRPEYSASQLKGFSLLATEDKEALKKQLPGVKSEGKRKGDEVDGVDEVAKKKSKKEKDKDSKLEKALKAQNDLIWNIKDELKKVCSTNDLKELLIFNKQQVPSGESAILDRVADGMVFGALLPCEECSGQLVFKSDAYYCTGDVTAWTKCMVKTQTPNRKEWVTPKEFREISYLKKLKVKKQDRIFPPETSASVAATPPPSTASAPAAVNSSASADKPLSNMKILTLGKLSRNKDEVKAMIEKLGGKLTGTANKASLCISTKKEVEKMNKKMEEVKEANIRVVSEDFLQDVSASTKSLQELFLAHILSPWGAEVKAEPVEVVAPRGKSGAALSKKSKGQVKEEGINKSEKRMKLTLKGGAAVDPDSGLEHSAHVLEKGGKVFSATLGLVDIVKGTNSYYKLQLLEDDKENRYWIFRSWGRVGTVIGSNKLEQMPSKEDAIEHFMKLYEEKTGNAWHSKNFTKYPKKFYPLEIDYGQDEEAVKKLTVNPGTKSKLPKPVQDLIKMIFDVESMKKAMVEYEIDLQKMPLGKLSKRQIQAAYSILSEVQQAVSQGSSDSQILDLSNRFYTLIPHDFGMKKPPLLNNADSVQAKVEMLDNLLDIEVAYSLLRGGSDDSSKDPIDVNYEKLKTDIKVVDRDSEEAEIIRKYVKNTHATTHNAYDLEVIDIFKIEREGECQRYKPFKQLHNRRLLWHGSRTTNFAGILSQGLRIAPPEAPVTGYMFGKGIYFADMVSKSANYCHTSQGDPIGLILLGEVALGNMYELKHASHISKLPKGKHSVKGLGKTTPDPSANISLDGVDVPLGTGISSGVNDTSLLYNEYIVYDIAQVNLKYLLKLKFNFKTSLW
Description: (§1) Experimental Objective: To evaluate the inhibitory effect of the compounds of the present invention on the enzyme activities of PARP1 and PARP2 using ELISA.
(§2) • 1. histone-coated 384-well plates was prepared: 25 µL of histone solution was added to each well and incubated overnight at 4 °C. • 2. PBST buffer, blocking buffer (PBS buffer with 5% BSA and 0.05% Tween-20 added) and detection buffer (20 mM HEPES pH 7.5 + 100 mM NaCl + 2 mM DTT + 0.002% Tween-20 + 0.1% BSA) were prepared. • 3. The histone-coated 3 84-well plate was washed three times with PBST buffer, blocked at room temperature with 50 µL blocking buffer for 1 hour, and then washed three times with PBST buffer. • 4. Test compounds were prepared as 2000-fold stock solutions in DMSO. 50 nL of the stock solution was mixed with 19.95 µL detection buffer, and 5 µL of the gradient-diluted test compound was transferred to each well. • 5. Enzymatic reaction (PARP1): PARP1 & DNA mix was pre-incubated at 25 °C for 10 minutes. 10 µL of the PARP1 & DNA mix was added to each well and incubated with the test compound at room temperature for 10 minutes. […] Finally, the 384-well plate was washed three times with PBST buffer. Enzymatic reaction (PARP2): PARP2 was pre-incubated at 25 °C for 10 minutes. 10 µL of PARP2 was added to each well and incubated with the test compound at room temperature for 10 minutes. […] Finally, the 384-well plate was washed three times with PBST buffer. • 6. Detection (PARP1): 20 µL of anti-Poly/Mono-ADP Ribose Rabbit mAb was added and incubated at room temperature for 1.5 hours, followed by three washes of the 384-well plate with PBST buffer. Then, 20 µL of diluted anti-rabbit IgG, HRP-linked Antibody (diluted 1:2000 in blocking buffer) was added and incubated at room temperature for 1 hour. After washing the plate three times with PBST buffer, 25 µL of a 1:1 mixture of Femto-ECL Substrate A and Femto-ECL Substrate B was added. Detection (PARP2): 25 µL of Strep-HRP was added and incubated at room temperature for 1 hour, followed by three washes of the 384-well plate with PBS buffer. Then, 25 µL of a 1:1 mixture of Femto-ECL Substrate A and Femto-ECL Substrate B was added. • 7. Chemiluminescence intensity was measured using an Envision multimode microplate reader. • 8. Data Processing
(§3) The inhibition rate was calculated in Excel using formula (1). inh% = (Max−Signal)/(Max−Min)*100 [formula]
(§4) The IC50 value was obtained by fitting the data in XL-Fit using formula (2). Y = bottom + (top−bottom)/(1+(IC50/X)*HillSlope); [formula] wherein Y is the inhibition percentage and X is the compound concentration.

[1] = Pharmacokinetics in SD rats after intravenous injection or gavage; conditions: rat, plasma
Description: (§5) The compounds of the present invention were administered to test animals in the form of 5% DMSO + 30% PEG400 + 65% physiological saline, 10% DMSO + 10% Kolliphor HS15 + 80% Saline, 10% DMSO + 89% (25% SBE-B-CD) + (2% HCl), 20% PEG400 + 80% sterile water for injection, or 10% DMA+ 10% HS15 + 30% PEG400 + 50% sterile aqueous solution for injection. Animals were fasted for 12 hours before administration but had free access to water. For the intravenous administration group, the dose was 1 mg/kg. Blood samples (approximately 0.15 mL) were collected intravenously at the following time points after administration: 0.083, 0.25, 0.5, 1.0, 2.0, 4.0, 6.0, 8.0 and 24 h (dogs) or 0.083, 0.25, 0.5, 1.0, 2.0, 5.0, 7.0 and 24 h (mice and rats) or 0.083, 0.25, 0.5, 1.0, 2.0, 6.0, 8.0 and 24 h (monkeys). EDTA-K2 was pre-added to the blood collection tube as an anticoagulant. The blood samples were centrifuged at 12,000 rpm for 2 minutes, and plasma was collected and stored at -20 °C or - 70 °C. For the gavage administration group, the dosage was 1 mg/kg (mice, dogs, and monkeys) or 5 mg/kg (rats). After administration, venous blood samples (approximately 0.15 mL) were collected at the following time points: 0.25, 0.5, 1.0, 2.0, 4.0, 6.0, 8.0, and 24 h (dogs) or 0.25, 0.5, 1.0, 2.0, 5.0, 7.0, and 24 h (mice and rats) or 0.25, 0.5, 1.0, 2.0, 6.0, 8.0, and 24 h (monkeys). EDTA-K2 was pre-added to the blood collection tube as an anticoagulant. The blood samples were centrifuged at 12,000 rpm for 2 minutes, and plasma was collected and stored at -20 °C or -70 °C.
(§6) The collected plasma samples were processed (frozen plasma was thawed at room temperature, vortexed for 15 s to mix, 10-20 µL of plasma was taken, 120-150 µL of acetonitrile solution containing internal standard was added, vortexed for 5 min to mix, centrifuged at 4,000 rpm for 5 min, 100 µL of supernatant was taken, and 120-150 Ml/water (v/v = 1/1) was added and mixed). The concentration of compounds in the plasma was then analyzed by LC-MS/MS.
(§7) Table D Pharmacokinetic parameters of compounds of the present invention in SD rats

DLD-1 BRCA2(-/-) cells = test: Inhibition of proliferation of DLD-1 BRCA2(-/-) cells (CTG method); type: cell-based; conditions: Homo sapiens, DLD-1, 168 h; 7 days incubation, CellTiter-Glo
Method in brief: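 DLD-1 BRCA2(-/-) cells, 1,000 per well, attached overnight, then exposed to compound at final 10000 to 0.152 nM (4-fold series) in triplicate for 7 days at 37 °C, 5% CO2. Viability by CellTiter-Glo luminescence; IC50 for proliferation inhibition from a fitted curve.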

PARP2 = PARP2 (Homo sapiens, UniProt Q9UGN5); test: biochemical;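 also: PARP2 enzyme ELISA on histone-coated plates, Strep-HRP detection with chemiluminescence read-out, 10 min compound preincubation with enzyme, inhibition scaled between Max and Min signal controls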
Chain of PARP2 (Q9UGN5 whole entry): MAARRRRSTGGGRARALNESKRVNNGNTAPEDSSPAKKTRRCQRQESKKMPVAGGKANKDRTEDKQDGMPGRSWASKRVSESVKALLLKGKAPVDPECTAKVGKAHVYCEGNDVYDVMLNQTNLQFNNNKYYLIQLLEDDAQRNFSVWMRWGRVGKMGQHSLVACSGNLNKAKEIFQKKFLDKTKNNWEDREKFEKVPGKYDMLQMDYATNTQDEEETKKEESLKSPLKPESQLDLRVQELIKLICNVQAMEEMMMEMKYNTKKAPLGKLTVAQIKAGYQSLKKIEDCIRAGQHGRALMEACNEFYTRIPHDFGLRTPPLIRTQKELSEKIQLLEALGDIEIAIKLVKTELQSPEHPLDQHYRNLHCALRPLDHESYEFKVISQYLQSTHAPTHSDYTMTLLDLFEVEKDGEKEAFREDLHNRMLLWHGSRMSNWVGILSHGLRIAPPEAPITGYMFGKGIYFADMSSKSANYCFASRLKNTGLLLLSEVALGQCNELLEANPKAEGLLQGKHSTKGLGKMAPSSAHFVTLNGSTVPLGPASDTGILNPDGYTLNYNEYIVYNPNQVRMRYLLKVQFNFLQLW
Description: as §1, §2, §3, §4

[2] = Pharmacokinetics in mice after intravenous injection or gavage; conditions: BALB/c, mouse, plasma
Description: as §5, §6

in vivo [3] = conditions: SD, rat
Description: as §5, §6, §7

in vivo [4] = conditions: BALB/c, mouse
Description: as §5, §6

CC#Cc1cc(CN2CCN(c3ccc(C(=O)NC4CC4)nc3F)CC2)cc2[nH]c(=O)c(C)nc12 [Example 35, N-cyclopropyl-6-fluoro-5-(4-((2-methyl-3-oxo-8-(prop-1-yn-1-yl)-3,4-dihydroquinoxalin-6-yl)methyl)piperazin-1-yl)picolinamide]
IC50 (MDA-MB-436 cells): 0.2 nM | IC50 (PARP1): 2 nM | Selectivity PARP2/PARP1 (PARP1): 44.3 | AUC(0-t) ([1]; iv, 1 mg/kg): 5680 ng·h/mL | Cmax ([1]; iv, 1 mg/kg): 2230 ng/mL | half-life ([1]; iv, 1 mg/kg): 2.4 h | AUC(0-t) ([1]; po, 5 mg/kg): 48300 ng·h/mL | Cmax ([1]; po, 5 mg/kg): 4970 ng/mL | half-life ([1]; po, 5 mg/kg): 2.8 h | IC50 (DLD-1 BRCA2(-/-) cells): 13 nM | IC50 (PARP2): 90.2 nM | AUC(0-t) ([2]; iv, 2 mg/kg): 2750 ng·h/mL | Cmax ([2]; iv, 2 mg/kg): 3750 ng/mL | half-life ([2]; iv, 2 mg/kg): 1.2 h | AUC(0-t) ([2]; po, 5 mg/kg): 4860 ng·h/mL | Cmax ([2]; po, 5 mg/kg): 2760 ng/mL | half-life ([2]; po, 5 mg/kg): 1.5 h

CNC(=O)c1ccc(N2CCN(Cc3cc(OC(C)C)c4nc(C)c(=O)[nH]c4c3)CC2)c(F)n1 [Example 3, 6-fluoro-5-(4-((8-isopropoxy-2-methyl-3-oxo-3,4-dihydroquinoxalin-6-yl)methyl)piperazin-1-yl)-N-methylpicolinamide]
IC50 (MDA-MB-436 cells): 7.5 nM | IC50 (PARP1): 2.67 nM | Selectivity PARP2/PARP1 (PARP1): 53.2 | AUC(0-t) ([1]; iv, 1 mg/kg): 1990 ng·h/mL | Cmax ([1]; iv, 1 mg/kg): 653 ng/mL | half-life ([1]; iv, 1 mg/kg): 3.4 h | AUC(0-t) ([1]; po, 5 mg/kg): 13100 ng·h/mL | Cmax ([1]; po, 5 mg/kg): 1400 ng/mL | half-life ([1]; po, 5 mg/kg): 3.7 h | IC50 (DLD-1 BRCA2(-/-) cells): 4.6 nM | IC50 (PARP2): 142 nM | AUC(0-t) ([2]; iv, 2 mg/kg): 2140 ng·h/mL | Cmax ([2]; iv, 2 mg/kg): 1220 ng/mL | half-life ([2]; iv, 2 mg/kg): 1.9 h | AUC(0-t) ([2]; po, 5 mg/kg): 4890 ng·h/mL | Cmax ([2]; po, 5 mg/kg): 1780 ng/mL | half-life ([2]; po, 5 mg/kg): 2.4 h

CNC(=O)c1ccc(N2CCN(Cc3cc(-c4ccccc4)c4nc(C)c(=O)[nH]c4c3)CC2)c(F)n1 [Example 2, 6-fluoro-N-methyl-5-(4-((2-methyl-3-oxo-8-phenyl-3,4-dihydroquinoxalin-6-yl)methyl)piperazin-1-yl)picolinamide]
IC50 (MDA-MB-436 cells): 20.2 nM | IC50 (PARP1): 1.5 nM | Selectivity PARP2/PARP1 (PARP1): 2084.7 | AUC(0-t) ([1]; iv, 1 mg/kg): 1090 ng·h/mL | Cmax ([1]; iv, 1 mg/kg): 534 ng/mL | half-life ([1]; iv, 1 mg/kg): 2.1 h | AUC(0-t) ([1]; po, 5 mg/kg): 5610 ng·h/mL | Cmax ([1]; po, 5 mg/kg): 719 ng/mL | half-life ([1]; po, 5 mg/kg): 3.4 h | IC50 (DLD-1 BRCA2(-/-) cells): 22.9 nM | IC50 (PARP2): 3130 nM | AUC(0-t) ([2]; iv, 2 mg/kg): 2870 ng·h/mL | Cmax ([2]; iv, 2 mg/kg): 942 ng/mL | half-life ([2]; iv, 2 mg/kg): 3.1 h | AUC(0-t) ([2]; po, 5 mg/kg): 8560 ng·h/mL | Cmax ([2]; po, 5 mg/kg): 1450 ng/mL | half-life ([2]; po, 5 mg/kg): 3.9 h

CC#Cc1cc(CN2CC=C(c3ccc(C(=O)NC)nc3F)CC2)cc2[nH]c(=O)c(C)nc12 [Example 12, 2-fluoro-N-methyl-1'-((2-methyl-3-oxo-8-(prop-1-yn-1-yl)-3,4-dihydroquinoxalin-6-yl)methyl)-1',2',3',6'-tetrahydro-[3,4'-bipyridine]-6-carboxamide]
IC50 (MDA-MB-436 cells): 0.6 nM | IC50 (DLD-1 BRCA2(-/-) cells): 1.9 nM | AUC(0-t) (in vivo [3]; iv, 1 mg/kg): 1260 ng·h/mL | Cmax (in vivo [3]; iv, 1 mg/kg): 897 ng/mL | half-life (in vivo [3]; iv, 1 mg/kg): 2 h | AUC(0-t) (in vivo [3]; po, 5 mg/kg): 3770 ng·h/mL | Cmax (in vivo [3]; po, 5 mg/kg): 922 ng/mL | half-life (in vivo [3]; po, 5 mg/kg): 2.4 h | AUC(0-t) (in vivo [4]; iv, 2 mg/kg): 1430 ng·h/mL | Cmax (in vivo [4]; iv, 2 mg/kg): 1630 ng/mL | half-life (in vivo [4]; iv, 2 mg/kg): 1.4 h | AUC(0-t) (in vivo [4]; po, 5 mg/kg): 4200 ng·h/mL | Cmax (in vivo [4]; po, 5 mg/kg): 2110 ng/mL | half-life (in vivo [4]; po, 5 mg/kg): 1.9 h

CC#Cc1cc(CN2CCN(c3ccc(C(=O)NC)nc3F)CC2)cc2[nH]c(=O)c(C)nc12 [Example 7, 6-fluoro-N-methyl-5-(4-((2-methyl-3-oxo-8-(prop-1-yn-1-yl)-3,4-dihydroquinoxalin-6-yl)methyl)piperazin-1-yl)picolinamide]
IC50 (MDA-MB-436 cells): 10.7 nM | IC50 (PARP1): 1.3 nM | Selectivity PARP2/PARP1 (PARP1): 362.1 | AUC(0-t) ([1]; iv, 1 mg/kg): 3370 ng·h/mL | Cmax ([1]; iv, 1 mg/kg): 1170 ng/mL | half-life ([1]; iv, 1 mg/kg): 3.4 h | AUC(0-t) ([1]; po, 5 mg/kg): 22400 ng·h/mL | Cmax ([1]; po, 5 mg/kg): 2600 ng/mL | half-life ([1]; po, 5 mg/kg): 3.3 h | IC50 (DLD-1 BRCA2(-/-) cells): 2.5 nM | IC50 (PARP2): 472 nM | AUC(0-t) ([2]; iv, 2 mg/kg): 2140 ng·h/mL | Cmax ([2]; iv, 2 mg/kg): 1300 ng/mL | half-life ([2]; iv, 2 mg/kg): 1.6 h | AUC(0-t) ([2]; po, 5 mg/kg): 6370 ng·h/mL | Cmax ([2]; po, 5 mg/kg): 3230 ng/mL | half-life ([2]; po, 5 mg/kg): 1.8 h

Cc1nc2c(OC(F)F)cc(CN3CCN(c4ccc(C(=O)NC5CC5)nc4F)CC3)cc2[nH]c1=O [Example 46, N-cyclopropyl-5-(4-((8-(ditluoromethoxy)-2-methyl-3-oxo-3,4-dihydroquinoxalin-6-yl)methyl)piperazin-1-yl)-6-fluoropicolinamide]
IC50 (MDA-MB-436 cells): 0.2 nM | IC50 (PARP1): 2.5 nM | Selectivity PARP2/PARP1 (PARP1): 25.0 | AUC(0-t) ([1]; iv, 1 mg/kg): 4500 ng·h/mL | Cmax ([1]; iv, 1 mg/kg): 1410 ng/mL | half-life ([1]; iv, 1 mg/kg): 3.2 h | AUC(0-t) ([1]; po, 5 mg/kg): 21200 ng·h/mL | Cmax ([1]; po, 5 mg/kg): 2150 ng/mL | half-life ([1]; po, 5 mg/kg): 3.4 h | IC50 (DLD-1 BRCA2(-/-) cells): 3.2 nM | IC50 (PARP2): 64 nM | AUC(0-t) ([2]; iv, 2 mg/kg): 11300 ng·h/mL | Cmax ([2]; iv, 2 mg/kg): 6460 ng/mL | half-life ([2]; iv, 2 mg/kg): 1.6 h | AUC(0-t) ([2]; po, 5 mg/kg): 25300 ng·h/mL | Cmax ([2]; po, 5 mg/kg): 8750 ng/mL | half-life ([2]; po, 5 mg/kg): 2 h
